These results are taken from ChEMBL document CHEMBL5724914, “Linking interpersonal differences in gut microbiota composition and drug biotransformation activity” (2024).

The conditions of series [1]: human gut metagenome, 24 h, 2 µM.
Series [2] is described as follows: The drug is tested on WLS-010 corresponding to human gut metagenome with ENA study accession number: PRJEB37062 and ENA sample accession number: ERS12561743 for biotransformation under anaerobic condition. The drug concentrations were measured over 9 timepoints collected between 0 and 24 hours of incubation by liquid-chromatography-coupled mass spectrometry (LC–MS). To be noted: 2 µM.

For series [3] the following is noted: human gut metagenome, 24 h, 2 µM. The source holds these as a separate data set.
Series [4] is described as follows: The drug is tested on Z-012 corresponding to metagenome with ENA study accession number: PRJEB37062 and ENA sample accession number: ERS12561812 for biotransformation under anaerobic condition. The drug concentrations were measured over 9 timepoints collected between 0 and 24 hours of incubation by liquid-chromatography-coupled mass spectrometry (LC–MS). To be noted: 2 µM.

For series [5] the following is noted: human gut metagenome, 24 h, 2 µM. This is another data set of the same source.
Series [6] in a line: The drug is tested on Z-030 corresponding to mouse gut metagenome with ENA study accession number: PRJEB37062 and ENA sample accession number: ERS12561829 for biotransformation under anaerobic condition. The drug concentrations were measured over 9 timepoints collected between 0 and 24 hours of incubation by liquid-chromatography-coupled mass spectrometry (LC–MS). To be noted: 2 µM.

For series [7] the following is noted: human gut metagenome, 24 h, 2 µM. The source holds these as a separate data set.
Series [8] is described as follows: The drug is tested on Z-011 corresponding to mouse gut metagenome with ENA study accession number: PRJEB37062 and ENA sample accession number: ERS12561811 for biotransformation under anaerobic condition. The drug concentrations were measured over 9 timepoints collected between 0 and 24 hours of incubation by liquid-chromatography-coupled mass spectrometry (LC–MS). To be noted: 2 µM.

For series [9] the following is noted: human gut metagenome, 24 h, 2 µM. The source holds these as a separate data set.
A short description of series [10]: The drug is tested on Z-026 corresponding to metagenome with ENA study accession number: PRJEB37062 and ENA sample accession number: ERS12561825 for biotransformation under anaerobic condition. The drug concentrations were measured over 9 timepoints collected between 0 and 24 hours of incubation by liquid-chromatography-coupled mass spectrometry (LC–MS). To be noted: 2 µM.

For series [11] the following is noted: human gut metagenome, 24 h, 2 µM. This is another data set of the same source.
Series [12] can be described thus: The drug is tested on WLS-098 corresponding to human gut metagenome with ENA study accession number: PRJEB37062 and ENA sample accession number: ERS12561754 for biotransformation under anaerobic condition. The drug concentrations were measured over 9 timepoints collected between 0 and 24 hours of incubation by liquid-chromatography-coupled mass spectrometry (LC–MS). To be noted: 2 µM.

The conditions of series [13]: human gut metagenome, 24 h, 2 µM. The source holds these as a separate data set.
Series [14] can be described thus: The drug is tested on Z-016 corresponding to mouse gut metagenome with ENA study accession number: PRJEB37062 and ENA sample accession number: ERS12561815 for biotransformation under anaerobic condition. The drug concentrations were measured over 9 timepoints collected between 0 and 24 hours of incubation by liquid-chromatography-coupled mass spectrometry (LC–MS). To be noted: 2 µM.

Series [15] is described as follows: The drug is tested on Z-024 corresponding to pig gut metagenome with ENA study accession number: PRJEB37062 and ENA sample accession number: ERS12561823 for biotransformation under anaerobic condition. The drug concentrations were measured over 9 timepoints collected between 0 and 24 hours of incubation by liquid-chromatography-coupled mass spectrometry (LC–MS). To be noted: 2 µM.

A short description of series [16]: The drug is tested on WLS-069 corresponding to human gut metagenome with ENA study accession number: PRJEB37062 and ENA sample accession number: ERS12561748 for biotransformation under anaerobic condition. The drug concentrations were measured over 9 timepoints collected between 0 and 24 hours of incubation by liquid-chromatography-coupled mass spectrometry (LC–MS). To be noted: 2 µM.

The nature of series [17]: The drug is tested on WLS-077 corresponding to human gut metagenome with ENA study accession number: PRJEB37062 and ENA sample accession number: ERS12561750 for biotransformation under anaerobic condition. The drug concentrations were measured over 9 timepoints collected between 0 and 24 hours of incubation by liquid-chromatography-coupled mass spectrometry (LC–MS). To be noted: 2 µM.

Series [18] is described as follows: The drug is tested on WLS-006 corresponding to human gut metagenome with ENA study accession number: PRJEB37062 and ENA sample accession number: ERS12561741 for biotransformation under anaerobic condition. The drug concentrations were measured over 9 timepoints collected between 0 and 24 hours of incubation by liquid-chromatography-coupled mass spectrometry (LC–MS). To be noted: 2 µM.

Series [19] can be described thus: The drug is tested on Z-014 corresponding to rat gut metagenome with ENA study accession number: PRJEB37062 and ENA sample accession number: ERS12561814 for biotransformation under anaerobic condition. The drug concentrations were measured over 9 timepoints collected between 0 and 24 hours of incubation by liquid-chromatography-coupled mass spectrometry (LC–MS). To be noted: 2 µM.

The conditions of series [20]: human gut metagenome, 24 h, 2 µM. This is another data set of the same source.
Also: call rule not given here.

Regarding `CCN1CCCC1CNC(=O)c1cc(S(=O)(=O)CC)c(N)cc1OC` (stereo not given) [AMISULPRIDE], the “Bacterial Biotransformation” value in series [1], in [2], in [3], in series [4], in series [5] and in series [6] was “Compound NOT metabolized” each time. Further, the “Bacterial Biotransformation” value in [7] is “Compound NOT metabolized”; in series [8], “Compound NOT metabolized”; in series [9], “Compound metabolized”; in [10], “Compound NOT metabolized”; in [11], “Compound NOT metabolized”; in series [12], “Compound metabolized”. The “Bacterial Biotransformation” value in [13], in series [14], in series [15], in series [16], in series [17] and in [18] was “Compound NOT metabolized” in each case. Also, the “Bacterial Biotransformation” value in [19] and in series [20] was “Compound NOT metabolized” in each case.
For `Nc1nc(N)nc(-c2cc(Cl)ccc2Cl)n1.O=C(O)/C=C\C(=O)O` [IRSOGLADINE MALEATE], the “Bacterial Biotransformation” value in [1], in series [2], in series [3], in series [4], in series [5] and in series [6] was “Compound NOT metabolized” each time. The “Bacterial Biotransformation” value in series [7] is recorded as “Compound NOT metabolized”; in series [8] it was “Compound NOT metabolized”; in series [9], “Compound metabolized”; in series [10], “Compound NOT metabolized”; in series [11], “Compound NOT metabolized”; in series [12], “Compound metabolized”. In addition, the “Bacterial Biotransformation” value in series [13], in series [14], in series [15], in [16], in series [17] and in [18] was “Compound NOT metabolized” in each case. Besides, the “Bacterial Biotransformation” value in series [19] and in [20] was “Compound NOT metabolized” throughout.
`O=C(O)c1cc(/N=N/c2ccc(S(=O)(=O)Nc3ccccn3)cc2)ccc1O` [SULFASALAZINE]: the “Bacterial Biotransformation” value in [1], in series [2], in [3], in series [4], in [5] and in series [6] was “Compound metabolized” throughout. Also, the “Bacterial Biotransformation” value in series [7], in series [8], in series [9], in series [10], in [11] and in [12] was “Compound metabolized” throughout. The “Bacterial Biotransformation” value in series [13], in series [14], in series [15], in series [16], in series [17] and in series [18] was “Compound metabolized” each time. Besides, the “Bacterial Biotransformation” value in series [19] and in [20] was “Compound metabolized” throughout.
In the case of `CC(C)NCC(O)COc1ccc(CC(N)=O)cc1` (stereo not given) [ATENOLOL], the “Bacterial Biotransformation” value in [1], in series [2], in series [3], in [4], in series [5] and in [6] was “Compound NOT metabolized” throughout. Also, the “Bacterial Biotransformation” value in series [7] was “Compound NOT metabolized”; in series [8], “Compound NOT metabolized”; in series [9] it was “Compound metabolized”; in series [10], “Compound NOT metabolized”; in series [11], “Compound NOT metabolized”; in series [12] it was “Compound metabolized”. The “Bacterial Biotransformation” value in series [13] was “Compound metabolized”; in series [14], “Compound NOT metabolized”; in series [15], “Compound NOT metabolized”; in [16], “Compound metabolized”; in series [17] it was “Compound metabolized”; in series [18] it was “Compound NOT metabolized”. In addition, the “Bacterial Biotransformation” value in series [19] and in series [20] was “Compound NOT metabolized” each time.
As to `CN(CCOc1ccc(CC2SC(=O)NC2=O)cc1)c1ccccn1.O=C(O)/C=C\C(=O)O` (stereo not given) [ROSIGLITAZONE MALEATE], the “Bacterial Biotransformation” value in series [1] is “Compound metabolized”; in [2], “Compound NOT metabolized”; in series [3], “Compound NOT metabolized”; in series [4] it was “Compound NOT metabolized”; in series [5], “Compound metabolized”; in [6], “Compound NOT metabolized”. For the same compound, the “Bacterial Biotransformation” value in [7] is “Compound NOT metabolized”; in [8] it was “Compound NOT metabolized”; in [9], “Compound metabolized”; in series [10] it was “Compound NOT metabolized”; in [11], “Compound NOT metabolized”; in series [12], “Compound metabolized”. In addition, the “Bacterial Biotransformation” value in series [13] was “Compound NOT metabolized”; in series [14], “Compound NOT metabolized”; in series [15], “Compound NOT metabolized”; in series [16] it was “Compound metabolized”; in series [17], “Compound NOT metabolized”; in series [18], “Compound metabolized”. Also, the “Bacterial Biotransformation” value in [19] and in series [20] was “Compound NOT metabolized” in each case.
